Experimental data taken from paper PMC7551609 (Viruses, 2020).
“Also recorded” adds a separate entry of the source. Read-outs that look alike come from different tables or passages of the source.

Tests used:
ZIKV Paraiba/2015 [1] = test: Viral inhibition assay, post-infection treatment, Vero cells; format: cell-based, Zika virus; conditions: for EC50: ZIKV Paraiba/2015, Vero cells, post-infection treatment, 36 h; for MIC: read-out: Post-treatment MIC (maximum effective concentration); for inhibitor category based on SI-MTT and SI-XTT / inhibitor category based on SI-MTT / inhibitor category based on SI-XTT: post-treatment, Paraiba/2015, Vero
[2] = MTT cell viability in A549 cells; format: cell-based, human; conditions: human, highest concentration used 50.00 µM, sentence also cites [17]
ZIKV MR-766 strain = test: Viral inhibition assay, post-treatment, old World strain, Vero cells; format: cell-based, Zika virus; conditions: for EC50 / MIC: Zika virus; for EC50: old World ZIKV MR-766, Vero cells, post-treatment; for MIC: old World ZIKV MR-766 strain, read-out: MR766 MIC (maximum effective concentration)
ZIKV Paraiba/2015 [3] = test: Viral inhibition assay, pre-treatment (prophylactic), Vero cells; format: cell-based, Zika virus; conditions: for MIC / EC50: Zika virus; for MIC: read-out: Pre-treatment MIC (maximum effective concentration); for EC50: ZIKV Paraiba/2015, Vero cells, pre-treatment 12 h before infection
ZIKV PRVABC59 strain = test: Viral inhibition assay, post-treatment, new World strain, Vero cells; format: cell-based, Zika virus; conditions: for EC50 / MIC: Zika virus; for EC50: new World ZIKV PRVABC59, Vero cells, post-treatment, 48 h; for MIC: new World ZIKV PRVABC59, read-out: PRVABC59 MIC (maximum effective concentration)
[4] = test system: ZIKV cocktail of MR-766, FSS13025, and MEX-2-81; conditions: JEG-3 cells, ZIKV cocktail of MR-766, FSS13025, MEX-2-81; cited from earlier work
[5] = XTT cell proliferation assay in Vero cells; format: cell-based, African green monkey; conditions: African green monkey, non-infected Vero cells, 36 h post-treatment
[6] = XTT cell proliferation in A549 cells; format: cell-based, human; conditions: human, highest concentration used 50.00 µM, sentence also cites [17]
ZIKV Paraiba/2015 [7] = test: Viral inhibition assay, co-treatment, Vero cells; format: cell-based, Zika virus; conditions: for Co-treatment MIC (maximum effective concentration): Vero cells, ZIKV Paraiba/2015, co-treatment; for inhibitor category based on SI-MTT / inhibitor category based on SI-MTT and SI-XTT / inhibitor category based on SI-XTT: co-treatment, Paraiba/2015, Vero
[8] = MTT cell viability assay in Vero cells; format: cell-based, African green monkey; conditions: African green monkey, non-infected Vero cells, 36 h post-treatment
ZIKV Paraiba/2015 [9] = test: Viral inhibition assay, post-treatment, human A549 cells; format: cell-based, Zika virus; conditions: for inhibitor category based on SI-MTT and SI-XTT: Paraiba/2015, A549 cells; for MIC / EC50: Zika virus; for MIC: in Homo sapiens, read-out: A549 cells MIC (maximum effective concentration); for EC50: ZIKV Paraiba/2015, A549 cells, post-treatment, 36 h
ZIKV Paraiba/2015 [10] = test: Growth kinetics inhibition assay (infectious viral progeny), Vero cells; format: cell-based, Zika virus
ZIKV PRVABC59 [11] = test system: ZIKV PRVABC59; set-up: method as in ref 22 = [22]; conditions: ZIKV PRVABC59, SF268 cells; cited from earlier work
ZIKV PRVABC59 [12] = test system: ZIKV PRVABC59; set-up: method as in ref 22 = [22]; conditions: ZIKV PRVABC59, U251 cells; cited from earlier work
ZIKV PRVABC59 [13] = test system: ZIKV PRVABC59; set-up: method as in ref 22 = [22]; conditions: ZIKV PRVABC59, Huh-7 cells; cited from earlier work
ZIKV-MEX-2-81 = conditions: ZIKV-MEX-2-81, U2OS cells; cited from earlier work
[14] = pre-treatment, Paraiba/2015, Vero
[15] = 0.1, 1, 10 EC50, all time points (24, 48, 72 h post-treatment), MOI 0.1

COc1c(C)c2c(c(O)c1C/C=C(\C)CCC(=O)OCCN1CCOCC1)C(=O)OC2 [Mycophenolate mofetil]
EC50 (ZIKV Paraiba/2015 [1]): 3.52 µM | EC50 (ZIKV Paraiba/2015 [1]; Zika virus, Vero): 3.54 µM | MIC (ZIKV Paraiba/2015 [1]; Zika virus): > 100 µM | inhibitor category based on SI-MTT and SI-XTT (ZIKV Paraiba/2015 [1]): moderate to weak | CC50 [2]: > 50 µM | inhibitor category based on SI-MTT and SI-XTT (ZIKV MR-766 strain; ZIKV MR-766, Vero): most potent; also recorded: potent | EC50 (ZIKV MR-766 strain): 0.24 µM | MIC (ZIKV MR-766 strain): < 1.23 µM | MIC (ZIKV Paraiba/2015 [3]): > 100 µM | EC50 (ZIKV Paraiba/2015 [3]): 8.11 µM | inhibitor category based on SI-MTT (ZIKV Paraiba/2015 [3]; [14]): Potent; also recorded: moderate | inhibitor category based on SI-XTT (ZIKV Paraiba/2015 [3]; [14]): potent | inhibitor category based on SI-MTT and SI-XTT (ZIKV PRVABC59 strain; ZIKV PRVABC59, Vero): potent | EC50 (ZIKV PRVABC59 strain): 0.12 µM | MIC (ZIKV PRVABC59 strain): < 1.23 µM | EC50 [4]: 0.76 µM | CC50 at 36 h ([5]; confluent monolayers): > 1350 µM | CC50 [6]: > 50 µM | Co-treatment MIC (maximum effective concentration) (ZIKV Paraiba/2015 [7]): > 100.00 µM | inhibitor category based on SI-MTT (ZIKV Paraiba/2015 [7]): Potent | inhibitor category based on SI-MTT and SI-XTT (ZIKV Paraiba/2015 [7]): potent | inhibitor category based on SI-XTT (ZIKV Paraiba/2015 [7]): potent | CC50 at 36 h ([8]; confluent monolayers): 166 µM | inhibitor category based on SI-MTT and SI-XTT (ZIKV Paraiba/2015 [9]): weak | MIC (ZIKV Paraiba/2015 [9]): < 11.1 µM | EC50 (ZIKV Paraiba/2015 [9]): 0.83 µM | effect on production of infectious viral progeny (viral titers) (ZIKV Paraiba/2015 [10]; [15]): dose-dependent inhibitory effect

NCC(=O)Nc1ccc(-n2nc(C(F)(F)F)cc2-c2ccc3c(ccc4ccccc43)c2)cc1 [OSU-03012]
EC50 (ZIKV PRVABC59 [11]): 1.18 µM | EC50 (ZIKV Paraiba/2015 [1]): 8.4 µM | EC50 (ZIKV Paraiba/2015 [1]; Zika virus, Vero): 6.85 µM | MIC (ZIKV Paraiba/2015 [1]; Zika virus): < 33.3 µM | inhibitor category based on SI-MTT (ZIKV Paraiba/2015 [1]): weak | inhibitor category based on SI-MTT and SI-XTT (ZIKV Paraiba/2015 [1]): weakest | inhibitor category based on SI-XTT (ZIKV Paraiba/2015 [1]): weak | CC50 [2]: > 50 µM | inhibitor category based on SI-MTT (ZIKV MR-766 strain; ZIKV MR-766, Vero): weak | inhibitor category based on SI-XTT (ZIKV MR-766 strain; ZIKV MR-766, Vero): moderate | EC50 (ZIKV MR-766 strain): 0.81 µM | MIC (ZIKV MR-766 strain): < 11.1 µM | EC50 (ZIKV PRVABC59 [12]): 0.84 µM | MIC (ZIKV Paraiba/2015 [3]): < 3.7 µM | EC50 (ZIKV Paraiba/2015 [3]): 0.93 µM | inhibitor category based on SI-MTT (ZIKV Paraiba/2015 [3]; [14]): moderate | inhibitor category based on SI-XTT (ZIKV Paraiba/2015 [3]; [14]): highest potent | inhibitor category based on SI-MTT (ZIKV PRVABC59 strain; ZIKV PRVABC59, Vero): weak | inhibitor category based on SI-XTT (ZIKV PRVABC59 strain; ZIKV PRVABC59, Vero): moderate | EC50 (ZIKV PRVABC59 strain): 1.68 µM | MIC (ZIKV PRVABC59 strain): > 11.1 µM | EC50 (ZIKV PRVABC59 [13]): 0.82 to 0.88 µM | CC50 at 36 h [5]: 132 µM | EC50 (ZIKV-MEX-2-81): 0.9 µM | CC50 [6]: > 50 µM | Co-treatment MIC (maximum effective concentration) (ZIKV Paraiba/2015 [7]): > 100.00 µM | EC50 (ZIKV Paraiba/2015 [7]; Zika virus, Vero): 1.77 µM | inhibitor category based on SI-MTT (ZIKV Paraiba/2015 [7]): weak | inhibitor category based on SI-XTT (ZIKV Paraiba/2015 [7]): potent | CC50 at 36 h [8]: 6.39 µM | inhibitor category based on SI-MTT and SI-XTT (ZIKV Paraiba/2015 [9]): moderate | MIC (ZIKV Paraiba/2015 [9]): < 1.23 µM | EC50 (ZIKV Paraiba/2015 [9]): 0.21 µM | effect on production of infectious viral progeny (viral titers) (ZIKV Paraiba/2015 [10]; 1 EC50, all the analyzed times, may be caused by toxicity): Complete inhibition

NC(=O)c1[nH]nc([C@@H]2O[C@H](CO)[C@@H](O)[C@H]2O)c1O [Pyrazofurin]
EC50 (ZIKV Paraiba/2015 [1]): 5.96 µM | EC50 (ZIKV Paraiba/2015 [1]; Zika virus, Vero): 5.16 µM | MIC (ZIKV Paraiba/2015 [1]; Zika virus): > 100 µM | inhibitor category based on SI-MTT (ZIKV Paraiba/2015 [1]): moderate | inhibitor category based on SI-MTT and SI-XTT (ZIKV Paraiba/2015 [1]): moderate to weak | inhibitor category based on SI-XTT (ZIKV Paraiba/2015 [1]): weak | CC50 [2]: > 50 µM | inhibitor category based on SI-MTT and SI-XTT (ZIKV MR-766 strain; ZIKV MR-766, Vero): moderate | EC50 (ZIKV MR-766 strain): 0.89 µM | MIC (ZIKV MR-766 strain): < 3.7 µM | MIC (ZIKV Paraiba/2015 [3]): > 100 µM | EC50 (ZIKV Paraiba/2015 [3]): 313 µM | inhibitor category based on SI-MTT and SI-XTT (ZIKV Paraiba/2015 [3]; [14]): weak | inhibitor category based on SI-XTT (ZIKV Paraiba/2015 [3]; [14]): weakest | inhibitor category based on SI-MTT and SI-XTT (ZIKV PRVABC59 strain; ZIKV PRVABC59, Vero): moderate | EC50 (ZIKV PRVABC59 strain): 0.95 µM | MIC (ZIKV PRVABC59 strain): < 3.7 µM | CC50 at 36 h ([5]; confluent monolayers): > 1350 µM | CC50 [6]: > 50 µM | Co-treatment MIC (maximum effective concentration) (ZIKV Paraiba/2015 [7]): > 100.00 µM | inhibitor category based on SI-MTT (ZIKV Paraiba/2015 [7]): weak | inhibitor category based on SI-MTT and SI-XTT (ZIKV Paraiba/2015 [7]): weak | CC50 at 36 h ([8]; confluent monolayers): 271 µM | inhibitor category based on SI-MTT and SI-XTT (ZIKV Paraiba/2015 [9]): moderate | MIC (ZIKV Paraiba/2015 [9]): < 1.23 µM | EC50 (ZIKV Paraiba/2015 [9]): 0.33 µM | effect on production of infectious viral progeny (viral titers) (ZIKV Paraiba/2015 [10]; [15]): dose-dependent inhibitory effect
